species on record: Homo sapiens; assay: Compound was tested for its ability to inhibit the thrombin-induced platelet aggregation in washed human platelets; format: functional

First: CC(=O)N[C@H](CCCCN)C(=O)N1C2CC=C(C(=O)NCCC(=O)O)C1CC2 (stereo partly specified)
Second: CC(=O)NC(CCCCN)C(=O)N1C2CC=C(C(=O)NCCC(=O)O)C1CC2 (stereo unspecified)
The IC50 of the first is lower: 160 µM for the first, over 500 µM for the second. The first is the more potent here.

First: NC(N)=NCCCC(N)C(=O)N1C2CCC1C(C(=O)NC(CC(=O)O)C(=O)NC(CO)C(=O)O)C2 (stereo unspecified)
Second: NC(N)=NCCCC(N)C(=O)N1C2CCC(C(=O)NC(CC(=O)O)C(=O)NC(CO)C(=O)O)C1CC2 (stereo unspecified)
The IC50 of the first is 17-fold higher: 402 µM for the first, 23 µM for the second. The second is the more potent here.

Going from `CC(=O)NC(CCCCN)C(=O)N1C2CCC(C(=O)NCCC(=O)O)C1CC2` (stereo unspecified) to `CC(=O)N[C@H](CCCCN)C(=O)N1C2CCC(C(=O)NCCC(=O)O)C1CC2` (stereo partly specified), the IC50 falls from 370 µM to 30 µM (12-fold). The second is the more potent here.

First: CC(=O)NC(CCCCN)C(=O)N1CCCC(C(=O)NCCC(=O)O)C1 (stereo unspecified)
Second: CC(=O)N[C@H](CCCCN)C(=O)N1CCCC(C(=O)NCCC(=O)O)C1 (stereo partly specified)
The IC50 of the first is 3-fold higher: 60 µM for the first, 20 µM for the second.

`CC(=O)N[C@H](CCCCN)C(=O)N1C2CCC1C(C(=O)NCCC(=O)O)C2` (stereo partly specified) and `CC(=O)NC(CCCCN)C(=O)N1C2CCC1C(C(=O)NCCC(=O)O)C2` (stereo unspecified) cannot be ordered by IC50: over 500 µM for the first, over 500 µM for the second.

Work on `NC(N)=NCCCC(N)C(=O)N1C2CC=C(C(=O)NC(CC(=O)O)C(=O)NC(CO)C(=O)O)C1CC2` (stereo unspecified) yielded an IC50 of 270 µM.

— ChEMBL document CHEMBL1130600, “Tropane-based amino acids for peptide structure-function studies: inhibitors of platelet aggregation” (Bioorg Med Chem Lett, 1998)
